In PMC3506555, “[^11C]phenytoin revisited: synthesis by [^11C]CO carbonylation and first evaluation as a P-gp tracer in rats” (EJNMMI Research, 2012):
“And” between values parts separate entries of the source, which are not always exact repeats. Equal entries are not always repeated.

Tests used:
[1] = Arterial plasma radioactivity concentration during PET scans; assay type: in vivo, Sprague–Dawley rats
Procedure: For animals that underwent three scans, the amount of blood withdrawn was reduced by replacing the two samples at 15 and 30 min with a single 20-min sample. […] Standardized uptake values (SUVs) as a function of time were derived by normalizing measured radioactivity concentrations against injected dose and body weight.

[2] = Metabolite analysis in plasma after i.v. [11C]phenytoin; assay type: in vivo, Sprague–Dawley rats; conditions: for Percentage of intact [11C]phenytoin, plasma: rat plasma, N = 2
Procedure: Chemicals were obtained from Sigma Aldrich (St. Louis, MO, USA) and were used without further purification. All reactions were carried out under an argon atmosphere unless stated otherwise. [^11C]CO2 was produced using an IBA Cyclone 18/9 cyclotron (IBA, Louvain-La-Neuve, Belgium) by the ^14N(p,α)^11C nuclear reaction performed in a 0.5% O2/N2 gas mixture. Water was purified over a Millipore filter (Millipore, Leiden, The Netherlands). The silica gel used as stationary phase for flash column chromatography was grade 9385, 230 to 400 mesh, 60 Å and obtained from Sigma Aldrich. Chemical shifts (δ) of nuclear magnetic resonance (NMR) spectra were defined relative to the signal of the solvent (7.26 for CDCl3 and 2.50 for DMSO-d6) and measured on a Bruker Avance 250 (Bruker, Billerica, MA, USA), with δ reported in parts per million relative to the solvent. Infrared (IR) spectra were obtained using a Shimadzu FTIR-8400 S (Shimadzu, Kyoto, Japan), and wavelengths (ν) are reported in per centimeter and (s), (m) and (w), indicating strong, moderate and weak signal, respectively. Electrospray ionization high-resolution mass spectrometry (ESI-HRMS) was carried out using a Bruker microTOF-Q instrument in positive ion mode (capillary potential of 4.500 V); electrospray ionization mass spectrometry was carried out using an AB Sciex Qtrap 5500 LC-MS/MS instrument (AB Sciex, Foster City, CA, USA) in negative ion mode. Semi-preparative high performance liquid chromatography (HPLC) was performed on an ACE 5-μM C18, 250*10-mm column (Alltech, Nicholasville, KY, USA) using the following settings: wavelength 230 nm, eluent MeCN/H2O/TFA 60/40/0.15 (v/v/v) and flow 4 mL·min^−1 (method A). Analytical HPLC was performed on a Kromasil 100 C18 10-μM (4.6 to 250 mm) column (Grace Alltech, Breda, The Netherlands) with the following settings: wavelength 230 nm, eluent acetonitrile/water/[…] 75/25/0.2 (v/v/v) and flow 1 mL·min^−1 (method B). Metabolite analysis was performed on a Gemini C18 5-μm (10 to 250 mm) column (Phenomenex, Torrance, CA, USA) (method C) with gradient and a mixture of (A) acetonitrile and (B) 0.1% trifluoro acetic acid in H2O as eluent according to the following scheme: 0 min, 90% B at 0.25 mL·min^−1; 0.5 min, 20% B at 4 mL·min^−1; 9.0 min, 30% B at 4 mL·min^−1; 13 min, 30% B at 4 mL·min^−1; 14.0 min, 90% B at 4.0 mL·min^−1 and 15 min, 90% B at 0.25 mL·min^−1. Tetrahydrofuran (THF), which was used during experiments, was distilled over LiAlH4 just prior to the experiments unless stated otherwise.
To study the metabolic profile of [^11C]phenytoin in the plasma and brain, five male Sprague–Dawley rats were injected with 150 to 250 MBq [^11C]phenytoin in the tail vein under isoflurane anesthesia. Three of these animals were pretreated with 15 mg·kg^−1 tariquidar 20 min prior to [^11C]phenytoin administration. Three arterial blood samples of 0.5, 0.8 and 1.2 mL were withdrawn at 10, 30 and 45 min or at 5, 15 and 25 min after [^11C]phenytoin injection, respectively. Immediately following the last blood sample, the rats were euthanized, and the brain was isolated. All blood samples were collected in heparin tubes and centrifuged at 4.000 rpm for 5 min at 4°C (Hettich Universal 16, Depex B.V., The Netherlands). Plasma was separated from blood cells and, between 0.3 and 0.7 mL, was loaded onto a tC-18 Sep-Pak (Waters, The Netherlands) and washed with 20 mL of water. The eluate was defined as the polar radiolabeled metabolite fraction. Thereafter, the tC-18 Sep-Pak was eluted with 1.5 ml of methanol. This eluate was defined as the nonpolar fraction and was analyzed using HPLC method C. Brain tissue was homogenized with an ultrasonic homogenizer (Braunsonic 1510, Kronberg, Germany) in water, under ice cooling, and subsequently centrifuged at 4,000 rpm for 5 min at 4°C. Separated supernatants were loaded onto a tC-18 Sep-Pak and washed with 20 mL water to obtain the polar fraction.

[3] = set-up: method as in PMID 98619; conditions: dosage of 14 mg/kg, rhesus monkeys; cited from earlier work
[4] = Metabolite analysis in brain tissue after i.v. [11C]phenytoin; assay type: in vivo, Sprague–Dawley rats; conditions: rat brain, N = 2
Procedure: Chemicals were obtained from Sigma Aldrich (St. Louis, MO, USA) and were used without further purification. All reactions were carried out under an argon atmosphere unless stated otherwise. [^11C]CO2 was produced using an IBA Cyclone 18/9 cyclotron (IBA, Louvain-La-Neuve, Belgium) by the ^14N(p,α)^11C nuclear reaction performed in a 0.5% O2/N2 gas mixture. Water was purified over a Millipore filter (Millipore, Leiden, The Netherlands). The silica gel used as stationary phase for flash column chromatography was grade 9385, 230 to 400 mesh, 60 Å and obtained from Sigma Aldrich. Chemical shifts (δ) of nuclear magnetic resonance (NMR) spectra were defined relative to the signal of the solvent (7.26 for CDCl3 and 2.50 for DMSO-d6) and measured on a Bruker Avance 250 (Bruker, Billerica, MA, USA), with δ reported in parts per million relative to the solvent. Infrared (IR) spectra were obtained using a Shimadzu FTIR-8400 S (Shimadzu, Kyoto, Japan), and wavelengths (ν) are reported in per centimeter and (s), (m) and (w), indicating strong, moderate and weak signal, respectively. […]
To study the metabolic profile of [^11C]phenytoin in the plasma and brain, five male Sprague–Dawley rats were injected with 150 to 250 MBq [^11C]phenytoin in the tail vein under isoflurane anesthesia. […] This eluate was defined as the nonpolar fraction and was analyzed using HPLC method C. […]

O=C1N[11C](=O)NC1(c1ccccc1)c1ccccc1 [[^11C]phenytoin]
Initial plasma concentrations after tariquidar treatment versus baseline ([1]; initial part of scan): somewhat lower than at baseline
Plasma concentrations after tariquidar treatment versus baseline ([1]; towards the end of the scans): similar
Percentage of intact [11C]phenytoin, plasma ([2]; 5 min after injection): 60 ± 7%
Percentage of intact [11C]phenytoin, plasma ([2]; 10 min after injection): 50 ± 16%
Percentage of intact [11C]phenytoin, plasma ([2]; 15 min after injection): 38 ± 3%
Percentage of intact [11C]phenytoin, plasma ([2]; 25 min after injection): 28 ± 2%
Percentage of intact [11C]phenytoin, plasma ([2]; 30 min after injection): 32 ± 18%
Percentage of intact [11C]phenytoin, plasma ([2]; 45 min after injection): 19% and 19 ± 8%
Metabolism in tariquidar-treated versus untreated rats ([2]; tariquidar 15 mg·kg^−1, 20 min prior to tracer): no difference in metabolism
Brain uptake [3]: high brain uptake
Percentage of intact [11C]phenytoin, brain ([4]; 25 min after injection): 95 ± 1%
Percentage of intact [11C]phenytoin, brain ([4]; 45 min after injection): 83% and 83 ± 5%
